Results taken from patent US11053238B2, “Benzimidazole derivatives, preparation methods and uses thereof” (BETTA PHARMACEUTICALS CO., LTD, priority 2016, dated 2021).
Where two headings read alike, the source gives them in different places. Values belong to the compound of their own block, whether it stands above or below them.

Assays:
CDK2/cyclin E = CDK2/cyclin E (Homo sapiens (Human), UniProt P24941); assay: 33P-ATP radiometric CDK kinase inhibitory activity and selectivity test; format: biochemical
Description: (§1) The mechanism of this method is shown in formula (II).
(§2) Data was processed with Prism4 Software (GraphPad), and the curve fitting formula was:
(§3) Y=Bottom+(Top−Bottom)/(1+10^((Log IC50−X)*HillSlope)); wherein, Y is percent inhibition (%); X is logarithm of concentration of the inhibitor.

CDK9/cyclin T1 = CDK9/cyclin T1 (Homo sapiens (Human), UniProt P50750); assay: as above; format: biochemical
Description: as §1, §2, §3

JeKo-1 cells = assay: Tumor regression effect on JeKo-1 xenograft animal model; format: in vivo, NOD/SCID mice; conditions: 10-100 mg/kg orally once a day, 19 days
Method: JeKo-1 cells were cultured in RPMI 1640 medium containing 20% fetal bovine serum. Exponentially growing JeKo-1 cells were collected and resuspended in PBS to a suitable concentration for NOD/SCID mice subcutaneous tumor inoculation. Seventy female mice were inoculated subcutaneously on the right with 5×10^6 JeKo-1 cells, resuspended in PBS and matrigel (1:1). When the average tumor volume reached 134 mm^3, the mice were randomly grouped according to the size of the tumor and were administrated. Forty-eight mice were divided into the experimental group, and the remaining twenty-two mice were not used for experiment. Tumor volume is calculated as: long diameter×short diameter^2/2. […] Efficacy is evaluated according to the relative tumor growth inhibition rate of TGI.
The higher the TGI (%) value illustrates the better the potency; and vice versa.

[1] = BALB/c mice, 200 mg/kg (qd); for observation (mortality) / Body weight (weight loss) / weight loss (in words): oral gavage; for Body weight (weight loss): vs vehicle control; for mice death in each group (6 mice): after treatment for 2 weeks
CDK2/CycA2 = CDK2/CycA2 (Homo sapiens (Human), UniProt P24941); assay: CDK kinase assay (Caliper, FAM-labeled peptide)
[2] = test system: Human colorectal cancer cells (colo-205); assay: MTS cell viability assay (cell proliferation); format: cell-based; conditions: colo-205 cells, 7 days of exposure
Method: Effects of test compounds on in vitro proliferation were measured by MTS cell viability assay.
Human colorectal cancer cells (colo-205) is expanded in culture (colo-205 is grown in DMEM media with 12% FBS, 1% P/S, and 1% L-glutamine).
MTS Cell Viability Assay:
1. Seed cells at density of 4×10^3 cells per well of 96-wells plates, grow for 24 h;
2. Add varying concentrations of test compounds to the cells;
3. Incubate for 7 days of exposure;
4. Prepare reagents following the instructions in the Cell Proliferation Assay kit (Promega);
5. Change to serum-free medium with a final volume of 100 μl/well. Prepare a set of wells with medium only for background subtraction;
6. Add 20 μl MTS solution containing PMS to each well (final concentration of MTS will be 0.33 mg/mL);
7. Incubate 1 to 4 h at 37° C. in a humidified, 5% CO2 atmosphere;
8. Record absorbance at 490 nm using VICTOR™ X5 plate reader (PerkinElmer).
All experimental points were set up in three wells and all experiments were repeated at least three times.

CDK4/CycD3 = CDK4/CycD3 (Homo sapiens (Human), UniProt P11802); assay: CDK kinase assay (Caliper, FAM-labeled peptide)
CDK6/cycD3 = CDK6/cycD3 (Homo sapiens (Human), UniProt Q00534); assay: CDK kinase assay (Caliper, FAM-labeled peptide); conditions: read-out: IC50(CDK6); CDK6/cycD3, ATP 800 μM
[3] = 33P-ATP, P81 membrane, read-out: CDK kinase inhibitory activity IC50, CDK2/cyclin E
[4] = text summary for CDK1/2/7/9, read-out: IC50 for inhibiting CDK2
[5] = 33P-ATP, P81 membrane, read-out: CDK kinase inhibitory activity IC50, CDK9/cyclin T1
[6] = text summary for CDK1/2/7/9, read-out: IC50 for inhibiting CDK9
[7] = IC50(CDK4), head-to-head comparison of substituent site, class symbols

Sequence of CDK4/CycD3 (P11802 whole entry, species assumed): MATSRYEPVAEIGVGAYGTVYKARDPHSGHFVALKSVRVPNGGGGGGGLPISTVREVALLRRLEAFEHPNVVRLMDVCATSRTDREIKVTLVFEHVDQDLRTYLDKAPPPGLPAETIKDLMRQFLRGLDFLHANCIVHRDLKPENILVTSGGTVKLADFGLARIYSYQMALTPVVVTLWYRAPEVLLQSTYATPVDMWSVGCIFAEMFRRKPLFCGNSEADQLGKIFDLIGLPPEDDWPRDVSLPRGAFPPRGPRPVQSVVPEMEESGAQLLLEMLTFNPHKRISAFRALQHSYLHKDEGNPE
Sequence of CDK4/CycD3 (P30281 whole entry partner, species assumed): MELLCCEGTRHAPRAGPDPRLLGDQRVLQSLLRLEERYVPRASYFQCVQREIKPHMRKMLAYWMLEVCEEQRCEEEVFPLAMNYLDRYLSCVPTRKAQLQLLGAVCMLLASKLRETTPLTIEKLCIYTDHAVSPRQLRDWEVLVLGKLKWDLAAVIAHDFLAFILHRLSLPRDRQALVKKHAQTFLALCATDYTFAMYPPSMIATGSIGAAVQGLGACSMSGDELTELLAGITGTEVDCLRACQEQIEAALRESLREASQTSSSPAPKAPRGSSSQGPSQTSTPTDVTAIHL
Sequence of CDK9/cyclin T1 (P50750 whole entry, species assumed): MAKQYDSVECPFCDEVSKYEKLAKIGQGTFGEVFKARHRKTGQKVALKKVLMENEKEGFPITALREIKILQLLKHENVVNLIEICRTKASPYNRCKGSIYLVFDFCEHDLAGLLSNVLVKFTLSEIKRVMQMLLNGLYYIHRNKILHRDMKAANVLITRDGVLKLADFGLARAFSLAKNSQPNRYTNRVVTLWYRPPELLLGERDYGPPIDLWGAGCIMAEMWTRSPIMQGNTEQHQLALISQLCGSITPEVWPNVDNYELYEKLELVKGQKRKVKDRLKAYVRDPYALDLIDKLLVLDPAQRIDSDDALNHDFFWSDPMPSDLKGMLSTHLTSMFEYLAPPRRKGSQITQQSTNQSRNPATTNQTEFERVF
Sequence of CDK9/cyclin T1 (O60563 whole entry partner, species assumed): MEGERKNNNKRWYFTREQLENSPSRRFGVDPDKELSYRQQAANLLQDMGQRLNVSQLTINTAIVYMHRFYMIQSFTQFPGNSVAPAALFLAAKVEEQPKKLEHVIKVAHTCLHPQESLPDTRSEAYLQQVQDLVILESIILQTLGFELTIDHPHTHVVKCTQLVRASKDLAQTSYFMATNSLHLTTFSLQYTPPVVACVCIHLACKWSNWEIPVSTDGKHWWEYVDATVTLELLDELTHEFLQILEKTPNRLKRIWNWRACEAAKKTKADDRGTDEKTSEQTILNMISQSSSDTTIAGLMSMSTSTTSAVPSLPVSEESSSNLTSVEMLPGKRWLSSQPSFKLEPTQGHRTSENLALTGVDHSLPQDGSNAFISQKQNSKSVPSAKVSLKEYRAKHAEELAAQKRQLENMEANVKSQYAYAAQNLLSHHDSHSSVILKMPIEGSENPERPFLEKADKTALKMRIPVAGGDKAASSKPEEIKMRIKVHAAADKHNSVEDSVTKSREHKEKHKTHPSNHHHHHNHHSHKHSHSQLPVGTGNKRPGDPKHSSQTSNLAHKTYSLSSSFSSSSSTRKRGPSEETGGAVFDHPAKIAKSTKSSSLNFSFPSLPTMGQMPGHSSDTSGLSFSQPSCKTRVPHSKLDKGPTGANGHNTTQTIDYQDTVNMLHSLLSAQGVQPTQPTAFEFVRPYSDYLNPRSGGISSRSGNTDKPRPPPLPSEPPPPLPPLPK
Sequence of CDK6/cycD3 (Q00534 whole entry, species assumed): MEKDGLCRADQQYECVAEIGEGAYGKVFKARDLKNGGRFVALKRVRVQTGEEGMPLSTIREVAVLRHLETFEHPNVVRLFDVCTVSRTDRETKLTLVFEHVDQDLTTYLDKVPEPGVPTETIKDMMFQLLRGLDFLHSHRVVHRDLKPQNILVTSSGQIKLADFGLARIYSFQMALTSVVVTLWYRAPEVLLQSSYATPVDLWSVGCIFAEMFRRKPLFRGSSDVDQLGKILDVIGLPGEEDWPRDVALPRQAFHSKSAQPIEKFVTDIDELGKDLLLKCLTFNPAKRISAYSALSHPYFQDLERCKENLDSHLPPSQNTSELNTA
Sequence of CDK6/cycD3 (P30281 whole entry partner, species assumed): as the sequence (P30281 whole entry partner, species assumed) above

SMILES: CCN1CCN(Cc2ccc(Nc3ncc(F)c(-c4cc(F)c5nc6n(c5c4)C(C)CCC6)n3)nc2)CC1 (single isomer, unassigned) [Compound 2a, N-(5-((4-ethylpiperazin-1-yl)methyl)pyridin-2-yl)-5-fluoro-4-(6-fluoro-1-methyl-1,2,3,4-tetrahydrobenzo[4,5]imidazo[1,2-a]pyridin-8-yl)pyrimidin-2-amine]
IC50 (CDK2/cyclin E; [3]): 596 nM | IC50 (CDK2/cyclin E; [4]): > 400 nM | IC50 (CDK9/cyclin T1; [5]): 779 nM | IC50 (CDK9/cyclin T1; [6]): > 400 nM

SMILES: CCN1CCN(Cc2ccc(Nc3ncc(F)c(-c4cc(F)c5nc6n(c5c4)C(C)CCC6)n3)nc2)CC1 (single isomer, unassigned) [Compound 2b, N-(5-((4-ethylpiperazin-1-yl)methyl)pyridin-2-yl)-5-fluoro-4-(6-fluoro-1-methyl-1,2,3,4-tetrahydrobenzo[4,5]imidazo[1,2-a]pyridin-8-yl)pyrimidin-2-amine]
anti-tumor activity (in words) (JeKo-1 cells): excellent anti-tumor activity | observation (mortality) [1]: − | Body weight (weight loss) [1]: * (weight loss less than 5%) | IC50 (CDK2/cyclin E; [3]): 441 nM | IC50 (CDK2/cyclin E; [4]): > 400 nM | IC50 (CDK9/cyclin T1; [5]): 649 nM | IC50 (CDK9/cyclin T1; [6]): > 400 nM

SMILES: CCN1CCN(Cc2ccc(Nc3ncc(F)c(-c4cc(F)c5nc6n(c5c4)C(C)COC6)n3)nc2)CC1 (single isomer, unassigned) [Compound 16b, N-(5-((4-ethylpiperazin-1-yl)methyl)pyridin-2-yl)-5-fluoro-4-(9-fluoro-4-methyl-3,4-dihydro-1H-benzo[4,5]imidazo[2,1-c][1,4]oxazin-7-yl)pyrimidin-2-amine]
IC50 (CDK2/CycA2): > 300 nM | observation (mortality) [1]: − | Body weight (weight loss) [1]: * (weight loss less than 5%)

IC50 [2]: 6640 nM
SMILES: CN1CCN(c2ccc(Nc3ncc(F)c(-c4cc(F)c5nc6n(c5c4)C4(CCC6)CC4)n3)nc2)CC1 [Com. EX. 1, 5-fluoro-4-(6-fluoro-3,4-dihydro-2 H-spiro[benzo[4,5]imidazo,[1,2-a]pyridine-1,1′-cyclopropan]-8-yl)-N-(5-(4-methylpiperazin-1-yl)pyridin-2-yl)pyrimidin-2-amine]

IC50 [2]: 8900 nM
SMILES: CN1CCN(c2ccc(Nc3ncc(F)c(-c4cc(F)c5nc6n(c5c4)CCCC6)n3)nc2)CC1 [Com. EX. 2, 5-fluoro-4-(6-fluoro-1,2,3,4-tetrahydrobenzo[4,5]imidazo[1,2-a]pyridin-8-yl)-N-(5-(4-methylpiperazin-1-yl)pyridin-2-yl)pyrimidin-2-amine]

SMILES: CCN1CCN(Cc2ccc(Nc3ncc(F)c(-c4cc(F)c5nc6n(c5c4)[C@H](C(C)C)COC6)n3)nc2)CC1 [Com. EX. 3b, (R)-N-(5-((4-ethylpiperazin-1-yl)methyl)pyridin-2-yl)-5-fluoro-4-(9-fluoro-4-isopropyl-3,4-dihydro-1 H-benzo[4,5]imidazo[2,1-c][1,4]oxazin-7-yl)pyrimidin-2-amine]
mice death in each group (6 mice) [1]: 4 | observation (mortality) [1]: + | weight loss (in words) [1]: much more weight loss | Body weight (weight loss) [1]: *** (weight loss more than 10% and less than 30%)

SMILES: CC[C@@H]1COCc2nc3c(F)cc(-c4nc(Nc5ccc(CN6CCN(CC)CC6)cn5)ncc4F)cc3n21 [Com. EX. 4b, (R)-4-(4-ethyl-9-fluoro-3,4-dihydro-1H-benzo[4,5]imidazo[2,1-c][1, 4]oxazin-7-yl)-N-(5-((4-ethylpiperazin-l-yl)methyl)pyridin-2-yl)-5-f luoropyimidin-2-amine]
mice death in each group (6 mice) [1]: 5 | observation (mortality) [1]: + | weight loss (in words) [1]: much more weight loss | Body weight (weight loss) [1]: *** (weight loss more than 10% and less than 30%)

IC50 (CDK2/CycA2): 40 nM
SMILES: CC1(C)CCCc2nc3c(F)cc(-c4nc(Nc5ccc(N6CCN(C7COC7)CC6)cn5)ncc4F)cc3n21 [Com. EX. 5, 5-fluoro-4-(6-fluoro-1,1-dimethyl-1,2,3,4-tetrahydrobenzo[4,5]imidazo[1,2-a]pyridin-8-yl)-N-(5-(4-(oxetan-3-yl)piperazin-1-yl)pyridin-2-yl)pyrimidin-2-amine, reference compound]

IC50 (CDK2/CycA2): 40 nM
SMILES: CC1(C)CCCc2nc3c(F)cc(-c4nc(Nc5ccc(CN6CCNCC6)cn5)ncc4F)cc3n21 [Com. EX. 6, 5-fluoro-4-(6-fluoro-1,1-dimethyl-1,2,3,4-tetrahydrobenzo[4,5]imidazo[1,2-a]pyridin-8-yl)-N-(5-(piperazin-1-ylmethyl)pyridin-2-yl)pyri midin-2-amine, reference compound]

IC50 (CDK4/CycD3): 57 nM | IC50 (CDK6/cycD3): 110 nM
SMILES: CC1CCCn2c1nc1c(F)cc(-c3ccnc(Nc4ccc(N5CCN(C)CC5)cn4)n3)cc12 (stereo not drawn) [Com. EX. No. 7, 4-(6-fluoro-4-methyl-1,2,3,4-tetra hydrobenzo[4,5]imidazo[1,2-a]pyridin-8-yl)-N-(5-(4-methylpiperazin-1-yl)pyridin-2-yl)pyrimidin-2-a mine]

IC50 (CDK4/CycD3; [7]): 1000 to 2000 nM
SMILES: CCN1CCN(Cc2ccc(Nc3ncc(F)c(-c4cc(F)c5nc6n(c5c4)CC(C)CC6)n3)nc2)CC1 (stereo not drawn) [Com. EX. No. 8, N-(5-((4-ethylpiperazin-1-yl)methyl)pyridin-2-yl)-5-fluoro-4-(6-fluoro-2-methyl-1,2,3,4-tetrahydrobenzo[4,5]imidazo[1,2-a]pyridin-8-yl) pyrimidin-2-amine]

IC50 (CDK4/CycD3; [7]): 1000 to 2000 nM
SMILES: CCN1CCN(Cc2ccc(Nc3ncc(F)c(-c4cc(F)c5nc6n(c5c4)CCCC6C)n3)nc2)CC1 (stereo not drawn) [Com. EX. No. 10, N-(5((4-ethylpiperazin-l-yl)methyl)pyridin-2-yl)-5-fluoro-4-(6-fluoro-4-methyl-1,2,3,4-tetrahydrobenzo[4,5]imidazo[1,2-a]pyridin-8-yl) pyrimidin-2-amine]

IC50 (CDK2/CycA2): > 300 nM | IC50 [2]: 78 nM
SMILES: CC1CCCc2nc3c(F)cc(-c4ccnc(Nc5ccc(N6CCN(C)CC6)cn5)n4)cc3n21 (stereo not drawn) [Compound 1, 4-(6-fluoro-1-methyl-1,2,3,4-tetrahydrobenzo[4,5]imidazo[1,2-a]pyridin-8-yl)-N-(5-(4-methylpiperazin-1-yl)pyridin-2-yl)pyrimidin-2-amine]

SMILES: CCN1CCN(Cc2ccc(Nc3ncc(F)c(-c4cc(F)c5nc6n(c5c4)C(C)CCC6)n3)nc2)CC1 (stereo not drawn) [Compound 2, N-(5-((4-ethylpiperazin-1-yl)methyl)pyridin-2-yl)-5-fluoro-4-(6-fluoro-1-methyl-1,2,3,4-tetrahydrobenzo[4,5]imidazo[1,2-a]pyridin-8-yl)pyrimidin-2-amine]
IC50 (CDK2/CycA2): > 300 nM | weight loss (in words) [1]: almost little weight loss | IC50 (CDK2/cyclin E; [3]): 474 nM | IC50 (CDK2/cyclin E; [4]): > 400 nM | IC50 (CDK9/cyclin T1; [5]): 572 nM | IC50 (CDK9/cyclin T1; [6]): > 400 nM | IC50 [2]: 53 nM

SMILES: CCN1CCN(Cc2ccc(Nc3ncc(F)c(-c4cc(F)c5nc6n(c5c4)C(C)COC6)n3)nc2)CC1 (stereo not drawn) [Compound 16, N-(5-((4-ethylpiperazin-1-yl)methyl)pyridin-2-yl)-5-fluoro-4-(9-fluoro-4-methyl-3,4-dihydro-1H-benzo[4,5]imidazo[2,1-c][1,4]oxazin-7-yl)pyrimidin-2-amine]
weight loss (in words) [1]: almost little weight loss

SMILES: CCN1CCN(Cc2ccc(Nc3ncc(F)c(-c4cc(F)c5nc(C)n(C(C)C)c5c4)n3)nc2)CC1 [LY2835219, Abemaciclib]
observation (mortality) [1]: − | IC50 [2]: 136 nM
